The record followed here is patent US7202269B2, “GlyT2 modulators” (Janssen Pharmaceutica N.V., priority 2003, dated 2007).

Structures are written as SMILES.

The target of one assay is T1, human glycine transporter-2 (GlyT2) (Homo sapiens, UniProt Q9Y345).
T1 construct: The entire coding region of the human GlyT2 cDNA was cloned into the mammalian expression vector pClNeo; expressed in transfected cells; host or cells: Cos-7 cells (African green monkey kidney, ATCC), stably transfected, G418-selected; vector pClNeo
T1 sequence (Q9Y345 1-797): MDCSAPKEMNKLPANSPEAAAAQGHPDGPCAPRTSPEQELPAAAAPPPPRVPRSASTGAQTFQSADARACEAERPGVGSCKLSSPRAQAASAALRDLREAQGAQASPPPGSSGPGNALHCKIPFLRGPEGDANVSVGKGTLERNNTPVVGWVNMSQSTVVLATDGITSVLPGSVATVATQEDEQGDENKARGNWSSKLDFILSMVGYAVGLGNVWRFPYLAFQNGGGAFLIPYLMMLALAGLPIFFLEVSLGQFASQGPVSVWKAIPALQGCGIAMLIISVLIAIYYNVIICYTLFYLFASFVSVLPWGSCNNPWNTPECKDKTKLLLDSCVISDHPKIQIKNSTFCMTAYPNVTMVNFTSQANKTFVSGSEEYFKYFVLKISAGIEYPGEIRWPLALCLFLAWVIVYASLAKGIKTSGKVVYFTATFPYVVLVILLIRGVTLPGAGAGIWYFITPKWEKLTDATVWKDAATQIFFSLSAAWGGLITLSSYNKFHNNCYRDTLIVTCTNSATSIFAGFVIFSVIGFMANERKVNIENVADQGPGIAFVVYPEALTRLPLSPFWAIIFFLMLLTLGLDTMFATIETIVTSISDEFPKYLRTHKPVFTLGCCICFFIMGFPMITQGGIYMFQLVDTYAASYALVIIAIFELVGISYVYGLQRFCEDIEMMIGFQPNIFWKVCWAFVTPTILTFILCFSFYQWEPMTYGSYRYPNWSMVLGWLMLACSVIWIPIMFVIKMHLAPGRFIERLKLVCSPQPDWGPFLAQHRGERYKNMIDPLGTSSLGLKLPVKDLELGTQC
In words: Inhibition of [14C]-glycine uptake in COS-7 cells transfected with human GlyT2. The assay is classed as cell-based. The conditions noted are these: Table 1, 20 μM, 2 h at 37° C., Cos-7 cells stably transfected with human GlyT2. As to the method:
GlyT2 antagonist activity of representative compounds of the invention was determined in accordance with the assay described in the Examples and by measuring the ability of compounds to inhibit the uptake of [^14C]-glycine in COS-7 cells transfected with the human glycine transporter-2 (GlyT2). The GlyT2 antagonist activities of these representative compounds are set forth hereinafter in Table 1.
Cos-7 cells (African green monkey, kidney) from American Type Culture Collection were grown in DMEM supplemented with 10% fetal bovine serum. The entire coding region of the human GlyT2 cDNA was cloned into the mammalian expression vector pClNeo, and then stably transfected into Cos-7 cells. Transfection was performed essentially as described by T. W. Lovenberg et al. (Mol. Pharmacol. 1999, 55:1101–1107): Briefly, cells were grown to 70–80% confluence, removed from the plate with trypsin, and pelleted in a clinical centrifuge. The pellet was resuspended in 400 μL complete medium and transferred to an electroporation cuvette with a 0.4 cm gap between the electrodes (Bio-Rad, 165–2088). One microgram of supercoiled GlyT2 cDNA was added to the cells, and the suspension was mixed. The voltage for the electroporation was set at 0.25 kV, and the capacitance was set at 960 μF. After electroporation, the cuvette contents were diluted to 10 mL with complete medium, and 0.5 mL, 1.0 mL, 2.0 mL and remainder (˜6.5 mL) portions were plated onto four 10-cm dishes. The cells were incubated 24 h before adding 600 μg/mL G418. Colonies that survived selection were isolated and tested for GlyT2 expression.
The day before the assay, the GlyT2 expressing cells were plated into 96-well scintillating microplates (Amersham, RPNQ 0160) at a density of approximately 20,000 cells per well. Cells were grown overnight at 37° C. in 5% CO2 and then washed once with 37° C. HEPES buffered saline (HBS: 150 mM NaCl, 20 mM HEPES, 1 mM CaCl2, 10 mM glucose, 5 mM KCl, 1 mM MgCl2; pH 7.4). Eighty microliters of 37° C. HBS was subsequently added to each well. Test solutions of GlyT2 inhibitors were prepared in HBS from DMSO stock solutions, and 5 μL of test solution was added to each test well. Total transport and non-specific background were determined by adding 5 μL HBS or 5 μL 2 M glycine, respectively, to the appropriate control wells. Plates were then left at rt for 5 min before the addition of 20 μL of 100 μM ^14C-glycine (NEN, NEC 048H) to each well for a final concentration of 20 μM. Plates were incubated for 2 h at 37° C. with 5% CO2. After 2 h the reaction mixtures were removed by aspiration, and the plates were washed once with ice-cold HBS. Plates were sealed with TopSeal (Packard, 6005185) and counted on a Packard TopCount® scintillation counter.
For `N#C/N=C(\Nc1ccc(-c2ccccc2)cc1)N[C@@H](Cc1ccccc1)C(=O)NCCCN1CCCC1` [Example 1, (S)-2-(N′-Biphenyl-4-yl-N″-cyano-guanidino)-3-phenyl-N-(3-pyrrolidin-1-yl-propyl)-propionamide], the IC50 was 0.011 µM. Turning to `N#C/N=C(\Nc1ccc(-c2ccccc2)cc1)N[C@H](CC(=O)NCCN1CCCC1)c1ccccc1` [Example 8, (R)-3-(N′-Biphenyl-4-yl-N″-cyano-guanidino)-3-phenyl-N-(2-pyrrolidin-1-yl-ethyl)-propionamide], half-maximal inhibition (IC50) required 0.031 µM. Turning to `N#C/N=C(\Nc1ccc(-c2ccccc2)cc1)N[C@H](CCC(=O)NCCN1CCCC1)Cc1ccccc1` [Example 42, (R)-4-(N′-Biphenyl-4-yl-N″-cyano-guanidino)-5-phenyl-pentanoic Acid (2-pyrrolidin-1-yl-ethyl)-amide], 0.093 µM corresponded to half-maximal inhibition (IC50).

On to `N#C/N=C(\Nc1ccc(-c2ccccc2)cc1)N[C@H](CC(=O)NCCN1CCCC1)Cc1ccccc1` [Example 53, (S)-3-(N′-Biphenyl-4-yl-N″-cyano-guanidino)-4-phenyl-N-(2-pyrrolidin-1-yl-ethyl)-butyramide], for which the IC50 turned out to be 0.103 µM.

The same assay, now with this note: Table 2, 20 μM, 2 h at 37° C., Cos-7 cells stably transfected with human GlyT2.
Consider `O=C(Nc1ccc(-c2ccccc2)cc1)N[C@H](CCCNCCN1CCCC1)Cc1ccccc1` [Example 2, 1-[(R)-1-Benzyl-4-(2-pyrrolidin-1-yl-ethylamino)-butyl]-3-biphenyl-4-yl-urea], for which the IC50 turned out to be 0.018 µM. The same measure, in the same setting: the figure for `CC(C)N(CCNC(=O)[C@H](Cc1ccccc1)NC(=O)Nc1ccc(Oc2ccc(Cl)cc2)cc1)C(C)C` [Example 3, (S)-2-{3-[4-(4-Chloro-phenoxy)-phenyl]-ureido}-N-(2-diisopropylamino-ethyl)-3-phenyl-propionamide] is 0.018 µM. As for `Cc1ccc([C@@H](CC(=O)NCCN2CCCC2)NC(=O)Nc2ccc(-c3ccccc3)cc2)cc1` [Example 6, (R)-3-(3-Biphenyl-4-yl-ureido)-N-(2-pyrrolidin-1-yl-ethyl)-3-p-tolyl-propionamide], 0.027 µM corresponded to half-maximal inhibition (IC50). As to `O=C(/C=C/[C@H](Cc1ccccc1)NC(=O)Nc1ccc(Oc2ccc(F)cc2)cc1)NCCN1CCCC1` [Example 11, (E)-(S)-4-{3-[4-(4-Fluoro-phenoxy)-phenyl]-ureido}-5-phenyl-pent-2-enoic Acid (2-pyrrolidin-1-yl-ethyl)-amide], it took 0.039 µM to reach half-maximal inhibition (IC50). `CCN(CC)CCNC(=O)/C=C/[C@H](Cc1ccccc1)NC(=O)Nc1ccc(-c2ccccc2)cc1` [Example 19, (E)-(S)-4-(3-Biphenyl-4-yl-ureido)-5-phenyl-pent-2-enoic Acid (2-diethylamino-ethyl)-amide] had an IC50 of 0.048 µM.

`CC(C)NCCNC(=O)/C=C/[C@H](Cc1ccccc1)NC(=O)Nc1ccc(-c2ccccc2)cc1` [Example 21, (E)-(S)-4-(3-Biphenyl-4-yl-ureido)-5-phenyl-pent-2-enoic Acid (2-isopropylamino-ethyl)-amide]: 0.052 µM corresponded to half-maximal inhibition (IC50). Same read-out and setting: the figure for `CC(C)NCCNC(=O)CC[C@H](Cc1ccccc1)NC(=O)Nc1ccc(-c2ccccc2)cc1` [Example 26, (R)-4-(3-Biphenyl-4-yl-ureido)-5-phenyl-pentanoic Acid (2-isopropylamino-ethyl)-amide] is 0.057 µM; for `O=C(CNc1ccc(Oc2ccc(Cl)cc2)cc1)N[C@@H](Cc1ccccc1)C(=O)NCCN1CCCC1` [Example 27, (S)-2-{2-[4-(4-Chloro-phenoxy)-phenylamino]-acetylamino}-3-phenyl-N-(2-pyrrolidin-1-yl-ethyl)-propionamide] it is 0.058 µM; for `O=C(C[C@H](Cc1ccccc1)NC(=O)CNc1ccc(Oc2ccc(Cl)cc2)cc1)NCCN1CCCC1` [Example 28, (S)-3-{2-[4-(4-Chloro-phenoxy)-phenylamino]-acetylamino}-4-phenyl-N-(2-pyrrolidin-1-yl-ethyl)-butyramide] it is 0.095 µM. Still for that read-out and setting: the figure for `CN(C)CCN(C)C(=O)C(Cc1ccccc1)NC(=O)Nc1ccc(-c2ccccc2)cc1` (centres unmarked) [Example 61, 2-(3-Biphenyl-4-yl-ureido)-N-(2-dimethylamino-ethyl)-N-methyl-3-phenyl-propionamide] is 3.5 µM. The molecule `CC(C)N(CCNC(=O)[C@H](Cc1ccccc1)NC(=O)Nc1ccc(-c2cccs2)cc1)C(C)C` [Example 65, (S)-N-(2-Diisopropylamino-ethyl)-3-phenyl-2-[3-(4-thiophen-2-yl-phenyl)-ureido]-propionamide] registered an IC50 of 0.405 µM. In the case of `O=C(Nc1ccc(Oc2ccccc2)cc1)N[C@@H](Cc1cscn1)C(=O)NCCN1CCCC1` [Example 74, (S)-2-[3-(4-Phenoxy-phenyl)-ureido]-N-(2-pyrrolidin-1-yl-ethyl)-3-thiazol-4-yl-propionamide], the IC50 worked out at 1.06 µM. Same read-out and setting: the figure for `O=C(Nc1ccc(-c2ccccc2)cc1)NC1(C(=O)NCCN2CCCC2)Cc2ccccc2C1` [Example 84, 2-(3-Biphenyl-4-yl-ureido)-indan-2-carboxylic Acid (2-pyrrolidin-1-yl-ethyl)-amide] is 10 µM; for `O=C(Nc1ccc(S(=O)(=O)c2ccc(Cl)cc2)cc1)N[C@@H](Cc1ccccc1)C(=O)NCCN1CCCC1` [Example 85, (S)-2-{3-[4-(4-Chloro-benzenesulfonyl)-phenyl]-ureido}-3-phenyl-N-(2-pyrrolidin-1-yl-ethyl)-propionamide] it is 0.269 µM; for `CCCNCCNC(=O)CC[C@H](Cc1ccccc1)NC(=O)Nc1ccc(-c2ccccc2)cc1` [Example 87, (R)-4-(3-Biphenyl-4-yl-ureido)-5-phenyl-pentanoic Acid (2-propylamino-ethyl)-amide] it is 0.076 µM.

For the molecule `NCCNC(=O)[C@H](Cc1ccccc1)NC(=O)Nc1ccc(Oc2ccccc2)cc1` [Example 98, (S)-N-(2-Amino-ethyl)-2-[3-(4-phenoxy-phenyl)-ureido]-3-phenyl-propionamide], the IC50 is 0.398 µM. Take `O=C(/C=C/[C@H](Cc1ccccc1)NC(=O)Nc1ccc(-c2ccccc2)cc1)NCCN1CCCC1` [Example 101, (E)-(S)-4-(3-Biphenyl-4-yl-ureido)-5-phenyl-pent-2-enoic Acid (2-pyrrolidin-1-yl-ethyl)-amide]: the IC50 is 0.112 µM.

The same assay, now with this note: Table 3, 20 μM, 2 h at 37° C., Cos-7 cells stably transfected with human GlyT2.
`O=C(NCCN1CCCC1)[C@H](Cc1ccccc1)NC(=S)Nc1ccc(Oc2ccc(Cl)cc2)cc1` [Example 9, (S)-2-{3-[4-(4-Chloro-phenoxy)-phenyl]-thioureido}-3-phenyl-N-(2-pyrrolidin-1-yl-ethyl)-propionamide] showed an IC50 of 0.032 µM. Turning to `O=C(CC[C@H](Cc1ccccc1)NC(=S)Nc1ccc(-c2ccccc2)cc1)NCCN1CCCC1` [Example 31, (R)-4-(3-Biphenyl-4-yl-thioureido)-5-phenyl-pentanoic Acid (2-pyrrolidin-1-yl-ethyl)-amide], the midpoint of inhibition, the IC50, lay at 0.089 µM.

By IC50 is commonly meant the concentration needed to halve the response being measured.
